Our source for the inhibition, viability and IC50 values is ChEMBL document CHEMBL4270549, “Influence of the C-5 substitution in polysubstituted pyrimidines on inhibition of prostaglandin E2 production” (Eur J Med Chem, 2018).

pIC50: −log10 of the molar value. The source made the active and inactive calls. The rule behind the calls is not given here.

One data set is filed under the species Mus musculus. The experiment in a line: Inhibition of LPS-induced PGE2 production in C57BL6 mouse peritoneal cells at 50 uM measured at 5 hrs time interval by ELISA. In kind it is functional. Background: In an ELISA, binding on a coated surface is turned into a signal by an enzyme label.
The nature of data set [1]: Cytotoxicity against C57BL6 mouse peritoneal cells assessed as cell viability measured at 5 hrs time interval by LDH release assay (reference value: 98.9 +/- 1.6%). The note with it: read-out: Activity. The format is cell-based.
A short description of data set [2]: Inhibition of LPS-induced PGE2 production in C57BL6 mouse peritoneal cells measured at 5 hrs time interval by ELISA. In kind it is functional. The note with it: C57BL6, 5 h.

In the case of `COc1ccc(-c2nc(N)nc(-c3ccc(OC)cc3)c2C)cc1`, in the data set filed under Mus musculus, the inhibition entry was “Active”.

On to `CCCCc1c(-c2ccccc2)nc(N)nc1-c1ccc(C)cc1`, for which the viability at 5 h in data set [1] was found to be 102%. The inhibition entry in the data set filed under Mus musculus was “Active”. Besides, the pIC50 – broadly, the negative decadic logarithm of the IC50, by convention in mol/L – in data set [2] was 5.61.

Regarding `COc1ccc(-c2cc(-c3ccc(C)cc3)nc(N)n2)cc1`, the inhibition entry in the data set filed under Mus musculus is “Active”.

`CC(=O)Oc1ccccc1C(=O)O` [ASPIRIN] showed a pIC50 in data set [2] of 5.39.

For the compound `CCCCc1c(-c2ccc(OC)cc2)nc(N)nc1-c1ccc(OC)cc1`, in data set [1], the viability at 5 h was 99.1%. In addition, in the data set filed under Mus musculus, the inhibition entry is “Active”. The compound further gave a pIC50 in data set [2] of 5.43.

In the case of `CCCCc1c(Cl)nc(N)nc1Cl`, in data set [1], the viability at 5 h stood at 99.8%. Also, the inhibition entry in the data set listed under Mus musculus was “Active”. This compound also showed a pIC50 in data set [2] of 5.27.

Consider `COc1ccc2c(c1)c(CC(=O)O)c(C)n2C(=O)c1ccc(Cl)cc1` [INDOMETHACIN], for which the pIC50 in data set [2] is 8.30.

For `CCCCc1c(-c2ccccc2)nc(N)nc1-c1ccc(OC)cc1`, the viability at 5 h in data set [1] worked out at 102%. Moreover, in the data set filed under Mus musculus, the inhibition result was “Active”. The compound also had a pIC50 in data set [2] of 5.47.

As for `COc1ccc(-c2cc(-c3ccc(OC)cc3)nc(N)n2)cc1`, in data set [1], the viability at 5 h was determined as 102%. Besides, the inhibition result in the data set filed under Mus musculus is “Active”. Further, the pIC50 in data set [2] is 6.92.

Consider `Cc1ccc(-c2cc(Cl)nc(N)n2)cc1`, for which, in data set [1], the viability at 5 h turned out to be 103%. Moreover, the inhibition entry in the data set listed under Mus musculus was “Active”. Also, the pIC50 in data set [2] is 5.63.

As for `COc1ccc(-c2nc(N)nc(Cl)c2C)cc1`, the inhibition result in the data set filed under Mus musculus was “Active”.

Consider `Cc1ccc(-c2nc(N)nc(-c3ccc(C)cc3)c2C)cc1`, for which, in the data set filed under Mus musculus, the inhibition result is “Active”.

On to `Cc1ccc(-c2cc(-c3ccc(C)cc3)nc(N)n2)cc1`, for which, in data set [1], the viability at 5 h came to 103%. For the same compound, the inhibition result in the data set listed under Mus musculus is “Active”. In addition, the pIC50 in data set [2] is 7.48.

As to `COc1ccc(-c2cc(Cl)nc(N)n2)cc1`, the viability at 5 h in data set [1] turned out to be 103%. Further, the inhibition entry in the data set listed under Mus musculus is “Active”. Moreover, the pIC50 in data set [2] was 5.55.

Turning to `CCCCc1c(Cl)nc(N)nc1-c1ccc(OC)cc1`, the viability at 5 h in data set [1] was found to be 96.6%. Further, in the data set listed under Mus musculus, the inhibition entry is “Active”. This compound also gave a pIC50 in data set [2] of 5.67.

Consider `CCCCc1c(-c2ccc(C)cc2)nc(N)nc1-c1ccc(C)cc1`, for which the inhibition result in the data set filed under Mus musculus was “Active”.

For the compound `COc1ccc(-c2nc(N)nc(-c3ccccc3)c2C)cc1`, the inhibition result in the data set listed under Mus musculus was “Active”.

On to `Nc1nc(-c2ccccc2)cc(-c2ccccc2)n1`, for which, in data set [1], the viability at 5 h came to 97.4%. Also, the inhibition result in the data set listed under Mus musculus was “Active”. For the same compound, in data set [2], the pIC50 is 8.52.

For `CCCCc1c(-c2ccc(C)cc2)nc(N)nc1-c1ccc(OC)cc1`, the inhibition entry in the data set listed under Mus musculus was “Active”.

`Cc1ccc(-c2cc(-c3ccccc3)nc(N)n2)cc1`: in data set [1], the viability at 5 h amounted to 103%. Moreover, the inhibition result in the data set listed under Mus musculus was “Active”. This compound also gave a pIC50 in data set [2] of 8.05.

Take `CCCCc1c(Cl)nc(N)nc1-c1ccccc1`: the inhibition result in the data set filed under Mus musculus was “Active”.

With `Cc1ccc(-c2nc(N)nc(-c3ccccc3)c2C)cc1`, the inhibition result in the data set filed under Mus musculus was “Active”.

For `CCCCc1c(Cl)nc(N)nc1-c1ccc(C)cc1`, the viability at 5 h in data set [1] is 101%. Besides, the inhibition result in the data set filed under Mus musculus was “Active”. In data set [2], this compound showed a pIC50 of 5.73.

In the case of `Cc1c(-c2ccccc2)nc(N)nc1-c1ccccc1`, the inhibition result in the data set listed under Mus musculus is “Active”.

On to `CCCCc1c(-c2ccccc2)nc(N)nc1-c1ccccc1`, for which, in the data set filed under Mus musculus, the inhibition result was “Active”.

`Cc1ccc(-c2nc(N)nc(Cl)c2C)cc1`: the inhibition entry in the data set filed under Mus musculus is “Active”.

Regarding `Cc1c(Cl)nc(N)nc1Cl`, the inhibition entry in the data set listed under Mus musculus was “inactive”.

For `Nc1nc(Cl)cc(-c2ccccc2)n1`, the inhibition result in the data set filed under Mus musculus was “Active”.

As for `Cc1c(Cl)nc(N)nc1-c1ccccc1`, the inhibition entry in the data set filed under Mus musculus was “Active”.

With `Nc1nc(Cl)cc(Cl)n1`, the inhibition result in the data set listed under Mus musculus was “inactive”.

Consider `COc1ccc(-c2nc(N)nc(-c3ccc(C)cc3)c2C)cc1`, for which the inhibition result in the data set filed under Mus musculus is “Active”.

For `COc1ccc(-c2cc(-c3ccccc3)nc(N)n2)cc1`, the viability at 5 h in data set [1] was 99.9%. Further, the inhibition result in the data set filed under Mus musculus was “Active”. Besides, in data set [2], the pIC50 is 8.05.
